# Results reported in patent publication US12466818B2, “Thienyl-aniline compounds for treatment of dermal disorders” (NFlection Therapeutics, Inc., priority 2018, dated 2025).
# Where a name gives a salt, the structure may show the parent alone.
# Key:
# MEK1 = MEK1 (Homo sapiens (Human), UniProt Q02750); assay: MEK Inhibition Assay-2 (Z'-LYTE biochemical assay); conditions: Z'-LYTE assay of Example 37; read-out: IC50 against MEK1
# Experimental: MEK1 inhibitory activity of compounds were tested using the following procedure (protocol available at thermofisher.com/content/dam/LifeTech/migration/files/drug-discovery/pdfs.par.60256.file.dat/20130430%20ssbk %20customer %20protocol %20 and %20assa y %20conditions.pdf). The Z′-LYTE biochemical assay (ThermoFisher) employs a fluorescence-based, coupled-enzyme format and is based on the differential sensitivity of phosphorylated and non-phosphorylated peptides to proteolytic cleavage.
# Test compounds in 100% DMSO were screened in 1% DMSO (final) in the well. For 10 point titrations, 3-fold serial dilutions are conducted from the starting concentration of 30 μM.
# After the 1 hour incubation, 5 μL of a 1:1024 dilution of Development Reagent A (available from Invitrogen, catalog no. PV3295) was added.
# ATP solutions were diluted to a 4× working concentration in Kinase Buffer (50 mM HEPES pH 7.5, 0.01% BRIJ-35, 10 mM MgCl2, 1 mM EGTA). ATP Km apparent was previously determined using a Z′-LYTE assay. The Development Reagent was diluted in Development Buffer (available from Invitrogen, catalog no. P3127).
# Assay Protocol: 2.5 μL of 4× test compound or 100 nL of 100× Test Compound plus 2.4 μL Kinase Buffer, 5 μL of the 2× Peptide/Kinase Mixture, 2.5 μL of 4×ATP Solution were added to the plates and placed on a shake plate for 30-seconds. The kinase reaction was allowed to proceed for 60-minute at room temperature, before 5 μL of Development Reagent Solution was added, and the mixture agitated for 30-seconds on a shake plate. The mixture was incubated for 60-minute at room temperature. Fluorescence was measured using a plate reader and the data were analyzed.
# This control yielded 100% cleaved peptide in the Development Reaction. The 100% Phosphorylation Control, which consisted of a synthetically phosphorylated peptide of the same sequence as the peptide substrate, was designed to allow for the calculation of percent phosphorylation. This control yielded a very low percentage of cleaved peptide in the Development Reaction. The 0% Phosphorylation and 100% Phosphorylation Controls allow for the calculation of the percent phosphorylation achieved in a specific reaction well.
# The minimum emission ratio in a screen was established by the 0% Inhibition Control, which contained active kinase. This control was designed to produce a 10-50% phosphorylated peptide in the Kinase Reaction. Cascade assays may produce up to 70% phosphorylated peptide.
# A known inhibitor control standard curve, 10 point titration, was run for each individual kinase on the same plate as the kinase to ensure the kinase was inhibited within an expected IC50 range previously determined.
# The following controls are prepared for each concentration of Test Compound assayed. […] The expected value for a non-interfering compound should be 100%. Any value outside of 90% to 110% was flagged. […] The expected value for a non-fluorescence compound should be 0%. Any value>20% was flagged.
# The data in Table A was calculated. XLfit from IDBS was used. The dose response curve was curve fit to model number 205 (sigmoidal dose-response model).
# Table 3 lists the MEK1 inhibition assay results of selected compounds according to the above procedure.
# A375 cells = assay: Assay 2: A375 (BRAF) GI50 cell-based assay (Cell Titer-Glo); conditions: Homo sapiens, A-375, 72 hours
# Experimental: (§1) Alternatively, the following procedure can be used to measure cell-based activity. Test compounds were dissolved in DMSO in 10 mM stock. Cell Titer-Glo® 2.0 Luminescent cell viability assay reagent was purchased from Promega (Madison, WI). A375 and HCT116 cell lines were purchased from American Type Culture Collection (Manassas, VA). For A375 cells, cell culture media was DMEM+10% FBS. For HCT116 cells, cell culture media was McCoy's 5A+10% FBS. All media were supplemented with 100 μg/mL of penicillin, and 100 μg/mL of streptomycin. Cultures were maintained at 37° C. in a humidified atmosphere of 5% CO2 and 95% air.
# (§2) Test compounds were diluted in DMSO solution with 10-dose and 3-fold dilutions in a source plate starting at 10 mM. 25 nL of each test compound was delivered from the source plate to each well of the 384-well cell culture plates (T=Final) by Echo 550. 25 μL of culture medium containing 2000 of A375 or HCT116 cells was added to each of the wells in duplicates of the cell culture plates (T=0 and T=Final). 25 μL of Cell Titer Glo 2.0 reagent was added to each well of cell culture plate (T=0). The contents were mixed on an orbital shaker for 2 min and incubated at room temperature for 15 min to stabilize luminescent signal. Luminescence was recorded by Envision 2104 Multilabel Reader (PerkinElmer, Santa Clara, CA). The number of viable cells in culture was determined based on quantitation of the ATP present in each culture well. The cells in cell culture plate (T=Final) were incubated with the compounds at 37° C., 5% CO2 for 72 hours. 25 μL of Cell Titer Glo 2.0 reagent was added to each well. The contents were mixed on an orbital shaker for 2 min and incubated at room temperature for 15 min to stabilize luminescent signal. Luminescence was recorded by Envision 2104 Multilabel Reader (PerkinElmer, Santa Clara, CA). The number of viable cells in culture was determined based on quantitation of the ATP present in each culture well. The GI50 curves were plotted using the GraphPad Prism 4 program based on a sigmoidal dose-response equation Y=Bottom+(Top-Bottom)/(1+10^((Log EC50−X)*HillSlope)). All parameters in the equation were calculated by GraphPad Prism 4 program. […] Accordingly, GI50 is the value of 10^X, where X was calculated by the Curve Fitting Equation when Y=50 using Excel.
# Assay 2 is the A375 (BRAF) GI50 (nM) cell-based assay as described in Example 39. A2 indicates an IC50 of less than or equal to 1 μM, and B2 indicates an IC50 of greater than 1 μM and less than or equal to 2 μM.
# HCT116 cells = assay: Assay 3: HCT116 (Kras) GI50 assay (Cell Titer-Glo); assay type: cell-based; conditions: Homo sapiens, HCT-116, 72 hours
# Experimental: as §1, §2
# Assay 3 is the HCT116 (Kras) GI50 (nM) assay as described in Example 39. A3 indicates an IC50 of less than or equal to 5 μM, and B3 indicates an IC50 of greater than 5 μM and less than or equal to 10 μM.
# [1] = Assay 5: skin S9 half-life stability assay; assay type: in vitro ADME; conditions: skin S9 fraction, pH 7.4; human skin S9, 1 μM test compound, NADPH
# Experimental: (§3) Compounds can be assessed for metabolic stability in human skin by assessing their rate of disappearance from human S9 skin fraction. Similarly, compounds can be assessed for metabolic stability in human liver by assessing their rate of disappearance from human S9 liver fraction. The protocol below is used to assess the difference between skin and hepatic metabolism.
# (§4) The assay was carried out in 96-well microtiter plates at 37° C. Reaction mixtures (25 μL) contained a final concentration of 1 μM test compound, 2 mg/mL liver or skin protein, and 1 mM NADPH in buffer (100 mM potassium phosphate, pH 7.4 buffer with 1 mM EDTA, 3 mM MgCl2). At each of the time points (0, 15, 30, and 60 minutes), 150 μL, of quench solution (100% acetonitrile with 0.1% formic acid) with internal standard was transferred to each well. […]
# (§5) All samples were analyzed on LC/MS/MS using an AB Sciex API 4000 instrument, coupled to a Shimadzu LC-20AD LC Pump system. […]
# (§6) The extent of metabolism was calculated as the disappearance of the test compound, compared to the 0-min control reaction incubations. Initial rates were calculated for the compound concentration and used to determine tin values and subsequently, the intrinsic clearance, CLint=(0.693)(1/t1/2 (min)) (mL incubation/mg of S9 protein). […]
# [2] = Assay 4: liver S9 half-life stability assay; assay type: in vitro ADME; conditions: liver S9 fraction, pH 7.4; human liver S9, 1 μM test compound, NADPH
# Experimental: as §3, §4, §5, §6
# [3] = Assay 6: liver microsomes half-life stability assay; assay type: in vitro ADME; conditions: pH 7.4; human liver microsomes, 1 μM test compound, NADPH
# Experimental: Metabolic stability of testing compound can be evaluated using human liver microsomes to predict intrinsic clearance. Human liver microsomes are obtained from Corning Gentest.
# The assay was carried out in 96-well microtiter plates at 37° C. Reaction mixtures (25 μL) contain a final concentration of 1 μM test compound, 0.5 mg/mL liver microsomes protein, and 1 mM NADPH in buffer (100 mM potassium phosphate, pH 7.4 buffer with 3 mM MgCl2). At each of the time points (0, 15, 30, and 60 minutes), 150 μL of quench solution (100% acetonitrile with 0.1% formic acid) with internal standard was transferred to each well. Verapamil was included as a positive control to verify assay performance. Plates were sealed and centrifuged at 4° C. for 15 minutes at 4000 rpm. The supernatant was transferred to fresh plates for LC/MS/MS analysis.
# as §5
# as §6, with “time incubation.” for “control reaction incubations.”, “t1/2” for “tin”, “(min))(g of liver/kg of body weight)(mL” for “(min)) (mL”, “microsomal protein)(45 mg of microsomal protein/g of liver weight).” for “S9 protein).”
# Sequence of MEK1 (Q02750 whole entry): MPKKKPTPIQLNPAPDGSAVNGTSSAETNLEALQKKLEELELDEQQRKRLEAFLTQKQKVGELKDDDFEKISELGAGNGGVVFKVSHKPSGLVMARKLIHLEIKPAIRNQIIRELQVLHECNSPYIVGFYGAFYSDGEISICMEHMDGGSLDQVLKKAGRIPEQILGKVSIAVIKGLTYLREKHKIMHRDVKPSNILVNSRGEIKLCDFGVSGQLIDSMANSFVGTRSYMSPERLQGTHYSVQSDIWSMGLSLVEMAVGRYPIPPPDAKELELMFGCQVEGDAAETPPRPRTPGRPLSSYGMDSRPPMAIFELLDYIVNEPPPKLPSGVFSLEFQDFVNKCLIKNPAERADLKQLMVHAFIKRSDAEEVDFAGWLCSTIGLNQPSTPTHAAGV
Compound,IC50 (MEK1) [nM],GI50 (A375 cells) [nM],GI50 (HCT116 cells) [nM],further results
"O=C1CCCc2c1sc(Nc1ccc(I)cc1F)c2C(=O)NOCC1CC1 [Compound 1.032, N-(Cyclopropylmethoxy)-2-((2-fluoro-4-iodophenyl)amino)-7-oxo-4,5,6,7-tetrahydrobenzo[b]thiophene-3-carboxamide]",≤ 150,≤ 1000,≤ 5000,–
"O=C1CCCc2c1sc(Nc1ccc(I)cc1F)c2C(=O)NC[C@@H](O)CO [Compound 1.035, (R)—N-(2,3-dihydroxypropyl)-2-((2-fluoro-4-iodophenyl)amino)-7-oxo-4,5,6,7-tetrahydrobenzo[b]thiophene-3-carboxamide]",≤ 150,–,–,–
"O=C1CCCc2c1sc(Nc1ccc(I)cc1F)c2C(=O)NC[C@H](O)CO [Compound 1.034, (S)—N-(2,3-dihydroxypropyl)-2-((2-fluoro-4-iodophenyl)amino)-7-oxo-4,5,6,7-tetrahydrobenzo[b]thiophene-3-carboxamide]",≤ 150,–,–,–
CC(=O)c1sc(Nc2ccc(I)cc2F)c(C(=O)NCC(C)(C)N)c1C [Compound 1.020],–,≤ 1000,5000 to 10000,–
"O=C1CCCc2c1sc(Nc1ccc(I)cc1F)c2C(=O)NOC[C@H](O)CO [Compound 1.030, (R)—N-(2,3-Dihydroxypropoxy)-2-((2-fluoro-4-iodophenyl)amino)-7-oxo-4,5,6,7-tetrahydrobenzo[b]thiophene-3-carboxamide]",≤ 150,–,–,–
"CC(=O)c1sc(Nc2ccc(I)cc2F)c(C(=O)N[C@@H]2CCCNC2)c1C [Compound 1.016, (R)-5-acetyl-2-((2-fluoro-4-iodophenyl)amino)-4-methyl-N-(piperidin-3-yl)thiophene-3-carboxamide]",–,1000 to 2000,≤ 5000,–
"NCCONC(=O)c1c(Nc2ccc(I)cc2F)sc2c1CCCC2=O [Compound 1.033, N-(2-Aminoethoxy)-2-(2-fluoro-4-iodophenylamino)-7-oxo-4,5,6,7-tetrahydrobenzo[b]thiophene-3-carboxamide hydrochloride]",≤ 150,–,–,–

# Second part, led by results:
IC50 (MEK1) [nM],GI50 (A375 cells) [nM],GI50 (HCT116 cells) [nM],Compound,further results
–,≤ 1000,5000 to 10000,CC(=O)c1sc(Nc2ccc(I)cc2F)c(C(=O)NOCC2CC2)c1C [Compound 1.023],–
–,1000 to 2000,≤ 5000,"CC(=O)c1sc(Nc2ccc(I)cc2F)c(C(=O)N[C@@H]2CCNC2)c1C [Compound 1.017, (R)-5-acetyl-2-((2-fluoro-4-iodophenyl)amino)-4-methyl-N-(pyrrolidin-3-yl)thiophene-3-carboxamide]",–
–,≤ 1000,≤ 5000,"CC(=O)c1sc(Nc2ccc(I)cc2F)c(C(=O)NOCCO)c1C [Compound 1.013, 5-Acetyl-2-((2-fluoro-4-iodophenyl)amino)-N-(2-hydroxyethoxy)-4-methylthiophene-3-carboxamide]",half-life at 1 μM [1]: ≥ 400 min; half-life at 1 μM [2]: ≤ 50 min; half-life at 1 μM [3]: ≤ 50 min
